Measurements as given in BindingDB's records for doi:10.1021/jm960416g (Universidad Complutense, 1996).

Columns and labels:
D(2) dopamine receptor = D(2) dopamine receptor (Rattus norvegicus, UniProt P61169); experiment: Binding affinity towards dopamine receptor D2 using [3H]-raclopride radioligand.
[1] = target: T1, 5-hydroxytryptamine receptor 1A (Rattus norvegicus, UniProt P19327); experiment: Binding affinity towards rat 5-hydroxytryptamine 1A receptor using [3H]8-OH-DPAT radioligand.
T1 sequence (P19327 whole entry): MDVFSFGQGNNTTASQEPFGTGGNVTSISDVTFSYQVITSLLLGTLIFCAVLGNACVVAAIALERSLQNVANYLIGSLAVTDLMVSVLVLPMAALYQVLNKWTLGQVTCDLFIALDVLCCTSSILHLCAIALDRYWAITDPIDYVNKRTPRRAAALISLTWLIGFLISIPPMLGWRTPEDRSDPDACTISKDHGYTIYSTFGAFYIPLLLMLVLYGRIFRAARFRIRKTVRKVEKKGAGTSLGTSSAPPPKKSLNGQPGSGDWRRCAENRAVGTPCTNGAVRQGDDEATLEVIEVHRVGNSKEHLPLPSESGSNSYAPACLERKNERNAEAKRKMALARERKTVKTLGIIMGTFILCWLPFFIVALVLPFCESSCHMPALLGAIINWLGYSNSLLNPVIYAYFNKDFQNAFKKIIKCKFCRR

Chain of D(2) dopamine receptor (P61169 whole entry): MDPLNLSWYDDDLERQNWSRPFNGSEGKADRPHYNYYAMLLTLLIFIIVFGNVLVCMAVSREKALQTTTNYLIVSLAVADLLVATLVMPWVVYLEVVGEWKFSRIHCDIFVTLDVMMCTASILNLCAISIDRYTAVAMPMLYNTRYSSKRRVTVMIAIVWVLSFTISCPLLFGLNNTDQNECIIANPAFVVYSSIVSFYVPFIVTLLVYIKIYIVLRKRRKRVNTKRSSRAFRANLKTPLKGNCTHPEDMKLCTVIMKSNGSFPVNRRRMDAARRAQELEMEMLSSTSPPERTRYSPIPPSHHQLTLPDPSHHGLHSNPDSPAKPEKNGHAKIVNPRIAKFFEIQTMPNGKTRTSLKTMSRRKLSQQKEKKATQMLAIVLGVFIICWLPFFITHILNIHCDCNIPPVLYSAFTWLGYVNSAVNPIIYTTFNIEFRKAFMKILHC

SMILES | Ki (D(2) dopamine receptor) | Ki [1]
O=c1n(CCN2CCN(c3cccc(Cl)c3)CC2)c(O)c2n1CCCC2 [2-{2-[4-(3-Chloro-phenyl)-piperazin-1-yl]-ethyl}-tetrahydro-imidazo[1,5-a]pyridine-1,3-dione] | > 1 µM | –
O=c1n(CCCCN2CCN(c3ccc(F)cc3)CC2)c(O)c2n1CCC2 [2-{4-[4-(4-Fluoro-phenyl)-piperazin-1-yl]-butyl}-tetrahydro-pyrrolo[1,2-c]imidazole-1,3-dione] | > 1 µM | –
O=c1n(CCCCN2CCN(c3cccc(C(F)(F)F)c3)CC2)c(O)c2n1CCC2 [2-{4-[4-(3-Trifluoromethyl-phenyl)-piperazin-1-yl]-butyl}-tetrahydro-pyrrolo[1,2-c]imidazole-1,3-dione] | > 1 µM | –
O=c1n(CCCN2CCN(c3cccc(C(F)(F)F)c3)CC2)c(O)c2n1CCCC2 [2-{3-[4-(3-Trifluoromethyl-phenyl)-piperazin-1-yl]-propyl}-tetrahydro-imidazo[1,5-a]pyridine-1,3-dione] | > 1 µM | –
O=c1n(CCCN2CCN(c3cccc(Cl)c3)CC2)c(O)c2n1CCC2 [2-{3-[4-(3-Chloro-phenyl)-piperazin-1-yl]-propyl}-tetrahydro-pyrrolo[1,2-c]imidazole-1,3-dione] | > 1 µM | –
COc1ccccc1N1CCN(CCCCn2c(O)c3n(c2=O)CCCC3)CC1 [2-{4-[4-(2-Methoxy-phenyl)-piperazin-1-yl]-butyl}-tetrahydro-imidazo[1,5-a]pyridine-1,3-dione] | > 1 µM | –
O=c1n(CCN2CCN(c3ccc([N+](=O)[O-])cc3)CC2)c(O)c2n1CCC2 [2-{2-[4-(4-Nitro-phenyl)-piperazin-1-yl]-ethyl}-tetrahydro-pyrrolo[1,2-c]imidazole-1,3-dione] | > 10 µM | > 10 µM
O=c1n(CCCN2CCN(c3ccc([N+](=O)[O-])cc3)CC2)c(O)c2n1CCC2 [2-{3-[4-(4-Nitro-phenyl)-piperazin-1-yl]-propyl}-tetrahydro-pyrrolo[1,2-c]imidazole-1,3-dione] | > 10 µM | > 10 µM
O=c1n(CN2CCN(c3ccc(F)cc3)CC2)c(O)c2n1CCC2 [2-[4-(4-Fluoro-phenyl)-piperazin-1-ylmethyl]-tetrahydro-pyrrolo[1,2-c]imidazole-1,3-dione] | > 10 µM | –
O=c1n(CCCN2CCN(c3ccc(F)cc3)CC2)c(O)c2n1CCC2 [2-{3-[4-(4-Fluoro-phenyl)-piperazin-1-yl]-propyl}-tetrahydro-pyrrolo[1,2-c]imidazole-1,3-dione] | > 1 µM | > 1 µM
O=c1n(CCN2CCN(c3ccc([N+](=O)[O-])cc3)CC2)c(O)c2n1CCCC2 [2-{2-[4-(4-Nitro-phenyl)-piperazin-1-yl]-ethyl}-tetrahydro-imidazo[1,5-a]pyridine-1,3-dione] | > 10 µM | > 10 µM
O=c1n(CN2CCN(c3cccc(C(F)(F)F)c3)CC2)c(O)c2n1CCC2 [2-[4-(3-Trifluoromethyl-phenyl)-piperazin-1-ylmethyl]-tetrahydro-pyrrolo[1,2-c]imidazole-1,3-dione] | > 1 µM | –
O=c1n(CN2CCN(c3ccccc3)CC2)c(O)c2n1CCC2 [2-(4-Phenyl-piperazin-1-ylmethyl)-tetrahydro-pyrrolo[1,2-c]imidazole-1,3-dione] | > 10 µM | –
COc1ccccc1N1CCN(Cn2c(O)c3n(c2=O)CCCC3)CC1 [2-[4-(2-Methoxy-phenyl)-piperazin-1-ylmethyl]-tetrahydro-imidazo[1,5-a]pyridine-1,3-dione] | > 10 µM | –
O=c1n(CN2CCN(c3ccc([N+](=O)[O-])cc3)CC2)c(O)c2n1CCC2 [2-[4-(4-Nitro-phenyl)-piperazin-1-ylmethyl]-tetrahydro-pyrrolo[1,2-c]imidazole-1,3-dione] | > 10 µM | > 1 µM
O=c1n(CCCN2CCN(c3cccc(C(F)(F)F)c3)CC2)c(O)c2n1CCC2 [2-{3-[4-(3-Trifluoromethyl-phenyl)-piperazin-1-yl]-propyl}-tetrahydro-pyrrolo[1,2-c]imidazole-1,3-dione] | > 1 µM | –
O=c1n(CCN2CCN(c3ccc(F)cc3)CC2)c(O)c2n1CCC2 [2-{2-[4-(4-Fluoro-phenyl)-piperazin-1-yl]-ethyl}-tetrahydro-pyrrolo[1,2-c]imidazole-1,3-dione] | > 10 µM | > 10 µM
O=c1n(CCCN2CCN(c3ccccc3)CC2)c(O)c2n1CCC2 [2-[3-(4-Phenyl-piperazin-1-yl)-propyl]-tetrahydro-pyrrolo[1,2-c]imidazole-1,3-dione] | > 1 µM | –
COc1ccccc1N1CCN(CCCn2c(O)c3n(c2=O)CCCC3)CC1 [2-{3-[4-(2-Methoxy-phenyl)-piperazin-1-yl]-propyl}-tetrahydro-imidazo[1,5-a]pyridine-1,3-dione] | > 1 µM | –
O=c1n(CN2CCN(c3cccc(C(F)(F)F)c3)CC2)c(O)c2n1CCCC2 [2-[4-(3-Trifluoromethyl-phenyl)-piperazin-1-ylmethyl]-tetrahydro-imidazo[1,5-a]pyridine-1,3-dione] | > 1 µM | –
O=c1n(CCCCN2CCN(c3ccccc3)CC2)c(O)c2n1CCCC2 [2-[4-(4-Phenyl-piperazin-1-yl)-butyl]-tetrahydro-imidazo[1,5-a]pyridine-1,3-dione] | > 1 µM | –
O=c1n(CCN2CCN(c3ccc(F)cc3)CC2)c(O)c2n1CCCC2 [2-{2-[4-(4-Fluoro-phenyl)-piperazin-1-yl]-ethyl}-tetrahydro-imidazo[1,5-a]pyridine-1,3-dione] | > 10 µM | > 10 µM
O=c1n(CN2CCN(c3ccc(F)cc3)CC2)c(O)c2n1CCCC2 [2-[4-(4-Fluoro-phenyl)-piperazin-1-ylmethyl]-tetrahydro-imidazo[1,5-a]pyridine-1,3-dione] | > 10 µM | –
O=c1n(CCCCN2CCN(c3ccc([N+](=O)[O-])cc3)CC2)c(O)c2n1CCC2 | > 1 µM | > 1 µM
O=c1n(CCN2CCN(c3cccc(Cl)c3)CC2)c(O)c2n1CCC2 [2-{2-[4-(3-Chloro-phenyl)-piperazin-1-yl]-ethyl}-tetrahydro-pyrrolo[1,2-c]imidazole-1,3-dione] | > 1 µM | –
O=c1n(CCN2CCN(c3ccccc3)CC2)c(O)c2n1CCCC2 [2-[2-(4-Phenyl-piperazin-1-yl)-ethyl]-tetrahydro-imidazo[1,5-a]pyridine-1,3-dione] | > 1 µM | > 1 µM
O=c1n(CCCN2CCN(c3ccc([N+](=O)[O-])cc3)CC2)c(O)c2n1CCCC2 [2-{3-[4-(4-Nitro-phenyl)-piperazin-1-yl]-propyl}-tetrahydro-imidazo[1,5-a]pyridine-1,3-dione] | > 10 µM | > 10 µM

Second part, the compound after the results:

Ki (D(2) dopamine receptor) | Ki [1] | SMILES
> 10 µM | – | O=c1n(CN2CCN(c3cccc(Cl)c3)CC2)c(O)c2n1CCC2 [2-[4-(3-Chloro-phenyl)-piperazin-1-ylmethyl]-tetrahydro-pyrrolo[1,2-c]imidazole-1,3-dione]
> 1 µM | > 1 µM | O=c1n(CCCCN2CCN(c3ccc([N+](=O)[O-])cc3)CC2)c(O)c2n1CCCC2 [2-{4-[4-(4-Nitro-phenyl)-piperazin-1-yl]-butyl}-tetrahydro-imidazo[1,5-a]pyridine-1,3-dione]
> 1 µM | – | O=c1n(CCN2CCN(c3cccc(C(F)(F)F)c3)CC2)c(O)c2n1CCCC2 [2-{2-[4-(3-Trifluoromethyl-phenyl)-piperazin-1-yl]-ethyl}-tetrahydro-imidazo[1,5-a]pyridine-1,3-dione]
> 1 µM | – | O=c1n(CCCN2CCN(c3ccccc3)CC2)c(O)c2n1CCCC2 [2-[3-(4-Phenyl-piperazin-1-yl)-propyl]-tetrahydro-imidazo[1,5-a]pyridine-1,3-dione]
> 1 µM | – | O=c1n(CCCN2CCN(c3cccc(Cl)c3)CC2)c(O)c2n1CCCC2 [2-{3-[4-(3-Chloro-phenyl)-piperazin-1-yl]-propyl}-tetrahydro-imidazo[1,5-a]pyridine-1,3-dione]
> 1 µM | – | COc1ccccc1N1CCN(CCCn2c(O)c3n(c2=O)CCC3)CC1 [2-{3-[4-(2-Methoxy-phenyl)-piperazin-1-yl]-propyl}-tetrahydro-pyrrolo[1,2-c]imidazole-1,3-dione]
> 1 µM | – | COc1ccccc1N1CCN(Cn2c(O)c3n(c2=O)CCC3)CC1 [2-[4-(2-Methoxy-phenyl)-piperazin-1-ylmethyl]-tetrahydro-pyrrolo[1,2-c]imidazole-1,3-dione]
> 1 µM | – | O=c1n(CCCN2CCN(c3ccc(F)cc3)CC2)c(O)c2n1CCCC2
> 10 µM | – | O=c1n(CN2CCN(c3cccc(Cl)c3)CC2)c(O)c2n1CCCC2 [2-[4-(3-Chloro-phenyl)-piperazin-1-ylmethyl]-tetrahydro-imidazo[1,5-a]pyridine-1,3-dione]
> 10 µM | – | O=c1n(CN2CCN(c3ccccc3)CC2)c(O)c2n1CCCC2 [2-(4-Phenyl-piperazin-1-ylmethyl)-tetrahydro-imidazo[1,5-a]pyridine-1,3-dione]
> 1 µM | > 1 µM | O=c1n(CCN2CCN(c3ccccc3)CC2)c(O)c2n1CCC2 [2-[2-(4-Phenyl-piperazin-1-yl)-ethyl]-tetrahydro-pyrrolo[1,2-c]imidazole-1,3-dione]
> 1 µM | – | O=c1n(CCN2CCN(c3cccc(C(F)(F)F)c3)CC2)c(O)c2n1CCC2 [2-{2-[4-(3-Trifluoromethyl-phenyl)-piperazin-1-yl]-ethyl}-tetrahydro-pyrrolo[1,2-c]imidazole-1,3-dione]
> 10 µM | > 1 µM | O=c1n(CN2CCN(c3ccc([N+](=O)[O-])cc3)CC2)c(O)c2n1CCCC2 [2-[4-(4-Nitro-phenyl)-piperazin-1-ylmethyl]-tetrahydro-imidazo[1,5-a]pyridine-1,3-dione]
